Columns and labels:
Carbonic anhydrase 2 = Carbonic anhydrase 2 (Homo sapiens, UniProt P00918)
Carbonic anhydrase 1 = Carbonic anhydrase 1 (Homo sapiens, UniProt P00915)
Carbonic anhydrase = target: T1, Carbonic anhydrase (Candida albicans (strain SC5314 / ATCC MYA-2876) (Yeast), UniProt Q5AJ71)
T1 sequence (Q5AJ71 whole entry): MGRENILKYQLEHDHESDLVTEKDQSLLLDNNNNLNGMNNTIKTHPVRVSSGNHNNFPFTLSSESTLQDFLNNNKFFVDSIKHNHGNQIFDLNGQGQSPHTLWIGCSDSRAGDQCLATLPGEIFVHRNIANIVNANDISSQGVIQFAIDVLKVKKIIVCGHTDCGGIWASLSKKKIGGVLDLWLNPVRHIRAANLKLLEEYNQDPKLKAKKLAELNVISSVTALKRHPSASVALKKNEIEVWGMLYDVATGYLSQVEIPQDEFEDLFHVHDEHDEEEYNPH

Chain of Carbonic anhydrase 1 (P00915 whole entry): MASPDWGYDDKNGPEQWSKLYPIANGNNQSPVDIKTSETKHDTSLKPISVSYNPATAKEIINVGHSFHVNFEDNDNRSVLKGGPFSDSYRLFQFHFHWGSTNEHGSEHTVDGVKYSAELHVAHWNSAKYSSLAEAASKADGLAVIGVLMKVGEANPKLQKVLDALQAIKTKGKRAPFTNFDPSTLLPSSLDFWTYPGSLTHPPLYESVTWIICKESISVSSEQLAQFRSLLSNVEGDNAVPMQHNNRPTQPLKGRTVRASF

Which Ki (Carbonic anhydrase 2) does the source give for `OB(O)/C=C/Cc1ccccc1` here?
The Ki was 18.1 µM.

What about the Ki (Carbonic anhydrase 1) of the same compound?
The Ki was 8.6 µM.

What about the Ki (Carbonic anhydrase) of the same compound?
Its Ki is 633 µM.

How did the Ki (Carbonic anhydrase 2) turn out when `COc1ccc(B(O)O)cc1` was run?
The Ki was 7.9 µM.

What about the Ki (Carbonic anhydrase 1) of the same compound?
The Ki was 10.9 µM.

What about the Ki (Carbonic anhydrase) of the same compound?
The Ki was 15.6 µM.

How did the Ki (Carbonic anhydrase) turn out when `OB(O)c1ccc(-c2ccccc2)cc1` [BIPHENYLBORONIC ACID] was run?
The Ki was 7.8 µM.

Which results are given for `OB(O)/C=C/c1ccc(-c2ccccc2)cc1`?
Ki (Carbonic anhydrase 2): 373 µM; Ki (Carbonic anhydrase): 42.3 µM

For `Cc1ccc(/C=C/B(O)O)cc1`, which Ki (Carbonic anhydrase 2) is on record?
The Ki was 617 µM.

What about the Ki (Carbonic anhydrase) of the same compound?
Its Ki is 460 µM.

`Cc1ccc(B(O)O)cc1` [TOLYL BORONIC ACID] was tested. Which Ki (Carbonic anhydrase 2) did it give?
Its Ki is 10.8 µM.

And the Ki (Carbonic anhydrase 1)?
Its Ki is 278 µM.

And the Ki (Carbonic anhydrase)?
The Ki was 9 µM.

With `OB(O)c1ccc2ccccc2c1` as the compound, how does the Ki (Carbonic anhydrase) read?
The Ki was 9.3 µM.

For `OB(O)c1ccc(Oc2ccccc2)cc1`, which Ki (Carbonic anhydrase 2) is on record?
Its Ki is 11.5 µM.

And the Ki (Carbonic anhydrase 1)?
The Ki was 6 µM.

What about the Ki (Carbonic anhydrase) of the same compound?
Its Ki is 8.6 µM.

What does the source list for `OB(O)/C=C/c1ccccc1` [STYRYLBORONIC ACID]?
Ki (Carbonic anhydrase 2): 534 µM; Ki (Carbonic anhydrase): 779 µM

`OB(O)/C=C/c1ccc(-c2ccc(C(F)(F)F)cc2)cc1` was tested. Which Ki (Carbonic anhydrase) did it give?
Its Ki is 5210 µM.

How did the Ki (Carbonic anhydrase) turn out when `CCCCc1ccc(B(O)O)cc1` was run?
The Ki was 8 µM.

With `OB(O)c1ccc(Br)cc1` as the compound, how does the Ki (Carbonic anhydrase 2) read?
Its Ki is 7 µM.

And the Ki (Carbonic anhydrase 1)?
Its Ki is 11.7 µM.

And the Ki (Carbonic anhydrase)?
Its Ki is 15.9 µM.

What does the source list for `OB(O)c1ccccc1` [PHENYLBORONIC ACID]?
Ki (Carbonic anhydrase 2): 1050 µM; Ki (Carbonic anhydrase 1): 1560 µM

Reference: ChEMBL document CHEMBL1151882, “Carbonic anhydrase inhibitors. Inhibition of the fungal beta-carbonic anhydrases from Candida albicans and Cryptococcus neoformans with boronic acids” (Bioorg Med Chem Lett, 2009)
